Measurements published in patent US20180207249A1, “METHOD AND VACCINE COMPRISING COPOLYMER 1 FOR TREATMENT OF PSYCHIATRIC DISORDERS” (YEDA RESEARCH AND DEVELOPMENT CO. LTD., priority 2003, published 2018).
Where a name gives a salt, the structure may show the parent alone.

B1: myelin basic protein (protein, UniProt P02686 1-304, looked up)
Myelin basic protein: MGNHAGKRELNAEKASTNSETNRGESEKKRNLGELSRTTSEDNEVFGEADANQNNGTSSQDTAVTDSKRTADPKNAWQDAHPADPGSRPHLIRLFSRDAPGREDNTFKDRPSESDELQTIQEDSAATSESLDVMASQKRPSQRHGSKYLATASTMDHARHGFLPRHRDTGILDSIGRFFGGDRGAPKRGSGKDSHHPARTAHYGSLPQKSHGRTQDENPVVHFFKNIVTPRTPPPSQGKGRGLSLSRFSWGAEGQRPGFGYGGRASDYKSAHKGFKGVDAQGTLSKIFKLGGRDSRSGSPMARR
B2: ovalbumin (protein, UniProt P01012 2-386, looked up)
Ovalbumin: GSIGAASMEFCFDVFKELKVHHANENIFYCPIAIMSALAMVYLGAKDSTRTQINKVVRFDKLPGFGDSIEAQCGTSVNVHSSLRDILNQITKPNDVYSFSLASRLYAEERYPILPEYLQCVKELYRGGLEPINFQTAADQARELINSWVESQTNGIIRNVLQPSSVDSQTAMVLVNAIVFKGLWEKAFKDEDTQAMPFRVTEQESKPVQMMYQIGLFRVASMASEKMKILELPFASGTMSMLVLLPDEVSGLEQLESIINFEKLTEWTSSNVMEERKIKVYLPRMKMEEKYNLTSVLMAMGITDVFSSSANLSGISSAESLKISQAVHAAHAEINEAGREVVGSAEAGVDAASVSEEFRADHPFLFCIKHIATNAVLFFGRCVSP

How the values were obtained:
[1] = tested on: C57BL/6J mice injected with MK-801 or AMPH; assay: Morris water maze (MWM) spatial learning/memory task after psychotomimetic drug; type: in vivo, mouse; conditions: C57BL/6J mice; MK-801 0.1 mg/kg i.p. or AMPH 2.5 mg/kg i.p.; relative to naive normal mice
Experimental: (§1) (iii) Immunization. Each animal was injected with a total of 100 μg of Cop-1 emulsified in an equal volume of complete Freund's adjuvant (CPA) containing 5 mg/ml of Mycobacteria H37 RA (Difco). The emulsion, in a total volume of 0.1 mL, was injected into the flank 1 week before the mouse was first injected with a psychotomimetic drug. Control mice were injected with an equal volume of phosphate-buffered saline (PBS) emulsified in CFA.
(vi) Drug solutions. Fresh solutions of dizocilpine maleate (MK-801; Sigma-Aidrich) were prepared in physiological saline (0.9% NaCl in sterile distilled water) for each batch of mice. Physiological saline was also used as a vehicle for D-amphetamine sulfate (AMPH: Sigma). MK-801. (0.1 mg/kg) or AMPH (2.5 mg/kg) or sahne was injected i.p., in a total volume of 5 ml per kg of body weight. Mice were injected with MK-801, AMPH, or vehicle 15 min before being subjected to behavioral tests.
(vii) Morris water maze (MWM) behavioral test. Spatial learning/memory was assessed by performance on a hippocampal-dependent visuospatial learning task in the MWM. Mice were given four trials per day, for four consecutive days, to find a hidden platform located 1.5 cm below the water surface in a pool 1.4 m in diameter. Within the testing room only distal visuo-spatial cues were available to the mice for location of the submerged platform. The escape latency, i.e., the time required by the mouse to find and climb onto the platform, was recorded for up to 60 s. Each mouse was allowed to remain on the platform for 30 s, and was then moved from the maze to its home cage. […] The inter-trial interval was 30 s. On day 5, the platform was removed from the pool, and each mouse was tested by a probe trial for 60 s. On days 6-7 the platform was placed at the opposite, location, and the mouse was retrained in four sessions. Data were recorded by using an EthoVision automated tracking system (Noldus Information Technology, Wageningen, The Netherlands). […]

[2] = tested on: C57BL/6J mice injected with MK-801 or AMPH; assay: Prepulse inhibition (PPI) of the acoustic startle response after psychotomimetic drug; type: in vivo, mouse; conditions: vehicle (PBS/CFA)-immunized C57BL/6J mice; MK-801 0.1 mg/kg i.p. or AMPH 2.5 mg/kg i.p.
Experimental: as §1
(vi) Drug solutions. Fresh solutions of dizocilpine maleate (MK-801; Sigma-Aidrich) were prepared in physiological saline (0.9% NaCl in sterile distilled water) for each batch of mice. […]
(viii) Prepulse inhibition (PPT). […] Acoustic PPI was measured by prepuise plus pulse trials consisting of a 2-ms prepuise, 100 ms delay, and then a 40-ms, 120-dB startle pulse. […]
PPI was calculated as a percentage score for each acoustic prepulse trial type: % PPI=100. {[(startle response for prepuise+pulse)/(startle response for pulse-alone)]×100}. The magnitude of the acoustic startle response was calculated as the average response to all of the pulse-alone trials, excluding the first and last blocks of five pulse-alone trials each. […]
(xi) Acoustic startle response (ASR). […] The ASR and pre-pulse inhibition were measured using two ventilated startle chambers (SR-LAB system, San Diego Instruments, San Diego, Calif.). […] These readings (signals) were digitized and stored in a computer. […]

[3] = tested on: Cop-1-reactive T cells; assay: ELISA of BDNF secreted by Cop-1-reactive T cells; type: cell-based, Lewis rats; conditions: 48 h stimulation with antigen; for BDNF secreted by Cop-1-reactive T cells (mean): mean of three independent experiments, no antigen 400
Experimental: (iv) T-cell lines. Ten days after Cop-1 immunization, T-cell lines were generated from draining lymph node cells obtained from Lewis rats immunized with Cop-1 emulsified in CFA. The lymph nodes were surgically removed, dissociated, washed, and then activated with the antigen (10 μg/ml) in stimulation medium as previously reported (Kipnis et al., 2000). The T-cells lines were expanded by repeated stimulation and propagation.
(v) Enzyme-linked immunosorbent assay. T cell-reactive Cop-1 cells were grown for 1 week in a propagation medium, then washed with PBS and re-suspended in stimulation medium. The cultured T cells (0.5×10^6 cells/mL) were then incubated, in the presence of irradiated thymocytes (10^7 cells/mL), with concanavalin A (Con A; 1.25 μg/mL), myelin basic protein (MRP; 10 μg/ml), Cop-1 (10 μg/mL), ovalbumin (OVA; 10 μg/mL), or no antigen, in stimulation medium. After 48 h the cells were centrifaged and their supernatants were collected and sampled. Concentrations of brain-derived neurotrophic factor (BDNF) in the samples were determined with a sensitive sandwich ELISA. In brief 96-well flat-bottomed plates were coated with a chicken anti-human BDNF antibody (Promega, Madison, Wis.) in 0.025 M NaHCO3 and 0.025 M Na2CO3 (pH 8.2). Recombinant human BDNF (used as a standard; Research Diagnostics, Flanders, N.J.) was used in serial dilutions in blocking solution containing 3% bovine serum albumin, 0.05% polyoxyethylene-sorbitan monolaurate (Tween-20), and 1% fetal calf serum in PBS (pH 8.2). Bound BDNF was detected by incubating the plates with a mouse anti-human BDNF antibody (Research Diagnostics) and then with peroxidase-conjugated goat anti-mouse IgG (Jackson ImmunoResearch, West Grove, Pa.) in blocking solution. The plates were developed using a 3,3′,5,5′-tetramethylbenzidine liquid substrate system (Sigma-Aldrich). The reaction was stopped by adding 1M H3PO4, and the optical density was determined at 450 nm. Results for each experiment were calculated as the amount of secreted BDNF per 1 mL of sample, after subtraction of background levels of the irradiated thymocytes incubated with the stimulation medium.
Cop-1-reactive T cells were cultured for 48 h with Cop-1, MBP, ovalbumin, or concanavalin A in stimulation medium. T cell supernatants were collected and subjected to sandwich ELISA. […] Values are mean values (pg/ml) +/− SE (from three independent experiments) of the amounts of BDNF secreted by Cop-1-specific T cells in response to stimulation by various antigens.

| Molecule | Effect of psychotomimetic drug on MWM spatial learning and memory performance [1] | Effect of psychotomimetic drug on PPI of the ASR [2] | BDNF secreted by Cop-1-reactive T cells (mean) [3] | Secretion of BDNF by Cop-1-reactive T cells compared with unstimulated T cells [3] |
| --- | --- | --- | --- | --- |
| C[C@H](N)Cc1ccccc1 [AMPH, D-amphetamine sulfate] | significantly impaired | significantly disrupted PPI | – | – |
| C[C@]12N[C@H](Cc3ccccc31)c1ccccc12 [MK-801, (+)dizocilpine maleate] | significantly impaired | significantly disrupted PPI | – | – |
| concanavalin A [Con A] | – | – | 1100 pg/mL | – |
| B1 | – | – | 1500 pg/mL | significantly increased |
| B2 | – | – | 440 pg/mL | – |
